# Target: NAALADase (Homo sapiens, UniProt Q04609)
# Assay: In vitro inhibition of NAALADase activity
# Assay type: biochemical
# Details: not given
# NAALADase, sequence (Q04609 whole entry): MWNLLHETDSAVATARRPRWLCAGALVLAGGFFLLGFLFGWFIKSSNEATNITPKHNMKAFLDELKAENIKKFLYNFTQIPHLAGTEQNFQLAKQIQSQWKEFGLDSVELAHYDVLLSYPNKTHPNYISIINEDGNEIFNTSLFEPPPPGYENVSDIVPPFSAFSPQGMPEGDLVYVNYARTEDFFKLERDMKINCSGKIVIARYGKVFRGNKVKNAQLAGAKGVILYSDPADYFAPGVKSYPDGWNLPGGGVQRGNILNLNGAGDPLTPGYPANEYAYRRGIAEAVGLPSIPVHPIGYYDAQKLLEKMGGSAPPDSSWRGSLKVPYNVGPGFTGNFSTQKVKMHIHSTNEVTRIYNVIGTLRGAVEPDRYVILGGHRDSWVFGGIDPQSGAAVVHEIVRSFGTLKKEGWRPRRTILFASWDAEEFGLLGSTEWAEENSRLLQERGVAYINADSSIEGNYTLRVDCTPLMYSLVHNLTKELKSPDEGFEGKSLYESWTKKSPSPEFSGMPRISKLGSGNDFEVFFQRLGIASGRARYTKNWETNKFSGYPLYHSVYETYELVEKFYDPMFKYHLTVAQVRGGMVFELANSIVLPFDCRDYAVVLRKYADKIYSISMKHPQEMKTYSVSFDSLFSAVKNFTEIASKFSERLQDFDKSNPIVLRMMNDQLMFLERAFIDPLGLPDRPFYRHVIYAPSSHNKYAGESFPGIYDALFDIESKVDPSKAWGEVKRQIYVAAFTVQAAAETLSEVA
row,SMILES,Ki
1,"O=C(O)Cc1cc(C(=O)O)ccc1C(=O)O [2-carboxymethyl-1,4-benzenedicarboxylic acid]",9000 nM
2,"O=C(O)c1ccc(Sc2ccccc2C(=O)O)c(C(=O)O)c1 [4-[(2-carboxyphenyl)thio]-1,3-benzenedicarboxylic acid]",3980 nM

# Second part, the compound after the results:
row,Ki,SMILES
1,14000 nM,"O=C(O)c1cc(C(=O)O)cc(P(=O)(O)O)c1 [5-phosphono-1,3-benzenedicarboxylic acid]"
2,50000 nM,"O=C(O)c1cc(CNCc2ccco2)cc(C(=O)O)c1 [5-[[(2-furanylmethyl)amino]methyl]-1,3-benzenedicarboxylic acid]"
3,5100 nM,"O=C(O)c1cc(CCS)cc(C(=O)O)c1 [5-(2-mercaptoethyl)-1,3-benzenedicarboxylic acid]"

# Same assay, conditions: read-out: IC50
row,SMILES,IC50
1,CCC(SCC(Cc1cccc(C(=O)O)c1)C(=O)O)C(=O)NO (centres unmarked) [3-[2-Carboxy-3-(1-hydroxycarbamoyl-propylsulfanyl)-propyl]-benzoic acid],41500 nM
2,O=C(CCc1cccc(OCc2cccc(C(=O)O)c2)c1)NO [3-[3-(2-Hydroxycarbamoyl-ethyl)-phenoxymethyl]-benzoic acid],92700 nM
3,O=C(O)CNC(=O)c1cccc(CC(CCCS)C(=O)O)c1 (stereo not drawn) [3-[[(carboxymethyl)amino]carbonyl]-alpha-(3-mercaptopropyl)-benzenepropanoic acid],286 nM
4,O=C(O)c1c(CCS)cccc1OCCc1ccccc1 [2-(2-mercaptoethyl)-6-(2-phenylethoxy)-benzoic acid],266 nM
5,O=C(CCCCSCCCC(Cc1cccc(C(=O)O)c1)C(=O)O)NO (centres unmarked) [3-[2-Carboxy-5-(4-hydroxycarbamoyl-butylsulfanyl)-pentyl]-benzoic acid],7580 nM
6,"O=C(O)c1c(F)c(F)c(CC(CCCS)C(=O)O)c(F)c1F (stereo not drawn) [4-carboxy-2,3,5,6-tetrafluoro-alpha-(3-mercaptopropyl)-benzenepropanoic acid]",660 nM
7,CC(C)(C)c1cc(CC(CCSCC(=O)NO)C(=O)O)cc(C(=O)O)c1 (centres unmarked) [3-tert-Butyl-5-(2-carboxy-4-hydroxycarbamoylmethyl-sulfanylbutyl)-benzoic acid],1060 nM
8,O=C(O)c1cccc(CCS)c1 [3-(2-mercaptoethyl)-benzoic acid],6050 nM
9,O=C(CC(Cc1cccc(C(=O)O)c1)C(=O)O)NO (centres unmarked) [3-(2-Carboxy-3-hydroxycarbamoyl-propyl)-benzoic acid],693 nM
10,CCCC(SCCCC(Cc1cccc(C(=O)O)c1)C(=O)O)C(=O)NO (centres unmarked) [3-[2-Carboxy-5-(1-hydroxycarbamoyl-butylsulfanyl)-pentyl]-benzoic acid],1530 nM
11,CC(C)C(SCCCC(Cc1cccc(C(=O)O)c1)C(=O)O)C(=O)NO (centres unmarked) [3-[2-Carboxy-5-(1-hydroxycarbamoyl-2-methyl-propylsulfanyl)-pentyl]-benzoic acid],2800 nM
12,O=C(CCCC(Cc1cccc(C(=O)O)c1)C(=O)O)NO (centres unmarked) [3-(2-Carboxy-5-hydroxycarbamoyl-pentyl)-benzoic acid],66.3 nM
13,O=C(O)c1cccc(CC(C(=O)O)C(=O)NO)c1 (centres unmarked) [3-(2-Carboxy-2-hydroxycarbamoyl-ethyl)-benzoic acid],4530 nM
14,CC(S)CCC(Cc1cccc(C(=O)O)c1)C(=O)O (stereo not drawn) [3-carboxy-alpha-(3-mercaptobutyl)-benzenepropanoic acid],30 nM
15,"O=C(O)c1cccc(-c2ccc(CS)cc2C(=O)O)c1 [4-(mercaptomethyl)-[1,1′-biphenyl]-2,3′-dicarboxylic acid]",76 nM
16,"O=C(COc1cccc(-c2cccc(C(=O)O)c2)c1C(=O)O)NO [3-Hydroxycarbamoylmethoxy-biphenyl-2,3′-dicarboxylic acid]",27600 nM
17,O=C(O)c1cc(CC(CCCS)C(=O)O)ccc1Cl (stereo not drawn) [3-carboxy-4-chloro-alpha-(3-mercaptopropyl)-benzenepropanoic acid],175 nM
18,COC(=O)c1cccc(CC(C(=O)O)C(=O)NO)c1 (centres unmarked) [3-(2-Carboxy-2-hydroxycarbamoyl-ethyl)-benzoic acid methyl ester],≥ 100000 nM
19,O=C(O)c1ccc(Br)c(CC(CCCS)C(=O)O)c1 (stereo not drawn) [2-bromo-5-carboxy-alpha-(3-mercaptopropyl)-benzenepropanoic acid],3.33 nM
20,"CC(S)CCC(Cc1cc(C(=O)O)cc(C(C)(C)C)c1)C(=O)O (stereo not drawn) [3-carboxy-5-(1,1-dimethylethyl)-alpha-(3-mercaptobutyl)-benzenepropanoic acid]",1 nM

row,SMILES,IC50
1,N#Cc1ccc(COc2ccc(C(=O)NO)cc2)cc1 [4-(4-Cyano-benzyloxy)-N-hydroxy-benzamide],14200 nM
2,O=C(O)Cc1ccc(CC(CCCS)C(=O)O)cc1 (stereo not drawn) [4-(carboxymethyl)-alpha-(3-mercaptopropyl)-benzenepropanoic acid],809 nM
3,N#Cc1ccccc1CC(CCCS)C(=O)O (stereo not drawn) [2-cyano-alpha-(3-mercaptopropyl)-benzenepropanoic acid],450 nM
4,O=C(O)c1ccc(F)c(OC(CCCS)C(=O)O)c1 (centres unmarked) [3-(1-carboxy-4-mercaptobutoxy)-4-fluoro-benzoic acid],400 nM
5,O=C(O)c1c(CCS)cccc1OCc1ccccc1 [2-(2-mercaptoethyl)-6-(phenylmethoxy)-benzoic acid],11.5 nM
6,O=C(O)c1cccc(CC(CNO)C(=O)O)c1 (centres unmarked) [3-(2-Carboxy-3-hydroxyamino-propyl)-benzoic acid],44000 nM
7,O=C(CCSCCCC(Cc1cccc(C(=O)O)c1)C(=O)O)NO (centres unmarked) [3-[2-Carboxy-5-(2-hydroxycarbamoyl-ethylsulfanyl)-pentyl]-benzoic acid],113 nM
8,O=C(O)c1ccc(Cl)c(OC(CCCS)C(=O)O)c1 (centres unmarked) [3-(1-carboxy-4-mercaptobutoxy)-4-chloro-benzoic acid],118 nM
9,O=C(O)c1cccc(CS)c1 [3-(mercaptomethyl)-benzoic acid],3780 nM
10,O=C(O)c1ccccc1Oc1ccc(CC(CCCS)C(=O)O)cc1 (stereo not drawn) [4-(2-carboxyphenoxy)-alpha-(3-mercaptopropyl)-benzenepropanoic acid],3590 nM
11,"CC(C)(C)c1cc(CC(CCCS)C(=O)O)cc(C(=O)O)c1 (stereo not drawn) [3-carboxy-5-(1,1-dimethylethyl)-alpha-(3-mercaptopropyl)-benzenepropanoic acid]",0.05 nM
12,"COC(=O)c1cccc(-c2cccc(OCCC(=O)NO)c2C(=O)OC)c1 [3-(2-Hydroxycarbamoyl-ethoxy)-biphenyl-2,3′-dicarboxylic acid dimethyl ester]",≥ 100000 nM
13,CC(=O)c1ccc(OC(CCCS)C(=O)O)cc1 (centres unmarked) [2-(4-acetylphenoxy)-5-mercaptopentanoic acid],29.8 nM
14,O=C(O)c1ccc(COc2cccc(CCS)c2C(=O)O)cc1Br [2-[(3-bromo-4-carboxyphenyl)methoxy]-6-(2-mercaptoethyl)-benzoic acid],0.098 nM
15,O=C(CSCCCC(Cc1cc(Br)cc(C(=O)O)c1)C(=O)O)NO (centres unmarked) [3-Bromo-5-(2-carboxy-5-hydroxycarbamoyl-methylsulfanylpentyl)-benzoic acid],2460 nM
16,O=C(CSCCCC(Cc1cccc(C(=O)O)c1)C(=O)O)NO (centres unmarked) [3-(2-Carboxy-5-hydroxycarbamoylmethyl-sulfanylpentyl)-benzoic acid],384 nM
17,O=C(O)c1ccccc1CC(CCCS)C(=O)O (stereo not drawn) [2-carboxy-alpha-(3-mercaptopropyl)-benzenepropanoic acid],1700 nM
18,CCC(SCCC(Cc1cc(C(=O)O)cc(C(C)(C)C)c1)C(=O)O)C(=O)NO (centres unmarked) [3-tert-Butyl-5-[2-carboxy-4-(1-hydroxycarbamoyl-propylsulfanyl)-butyl]-benzoic acid],16000 nM
19,O=C(O)c1cc(CC(CCCS)C(=O)O)ccc1F (stereo not drawn) [3-carboxy-4-fluoro-alpha-(3-mercaptopropyl)-benzenepropanoic acid],12 nM

# Results, then the compound that gave them:
row,IC50,SMILES
1,566 nM,"COc1ccc(OC)c(CC(CCCS)C(=O)O)c1 (stereo not drawn) [alpha-(3-mercaptopropyl)-2,5-dimethoxy-benzenepropanoic acid]"
2,1130 nM,O=C(O)C(CCCS)Cc1ccc2ccccc2c1 (stereo not drawn) [alpha-(3-mercaptopropyl)-2-naphthalenepropanoic acid]
3,84.5 nM,O=C(O)c1cccc(COc2ccc(CCS)c(C(=O)O)c2)c1 [5-[(3-carboxyphenyl)methoxy]-2-(2-mercaptoethyl)-benzoic acid]
4,188 nM,O=C(O)c1cc(CS)ccc1OCCc1ccccc1 [5-(mercaptomethyl)-2-(2-phenylethoxy)-benzoic acid]
5,2.55 nM,"O=C(O)c1cc(CC(CCCS)C(=O)O)cc(C(=O)O)c1 (centres unmarked) [5-(2-carboxy-5-mercaptopentyl)-1,3-benzenedicarboxylic acid]"
6,211 nM,CS(=O)(=O)c1ccc(CC(CCCS)C(=O)O)cc1 (stereo not drawn) [alpha-(3-mercaptopropyl)-4-(methylsulfonyl)-benzenepropanoic acid]
7,2.09 nM,O=C(O)c1ccc(Cl)c(CC(CCCS)C(=O)O)c1 (stereo not drawn) [5-carboxy-2-chloro-alpha-(3-mercaptopropyl)-benzenepropanoic acid]
8,297 nM,O=C(O)C(CCCS)Sc1ccccc1 (centres unmarked) [5-mercapto-2-(phenylthio)-pentanoic acid]
9,316 nM,O=C(O)c1ccc(CC(CCCS)C(=O)O)c2ccccc12 (stereo not drawn) [4-carboxy-alpha-(3-mercaptopropyl)-1-naphthalenepropanoic acid]
10,59 nM,O=C(O)c1ccc(CC(CCCS)C(=O)O)cc1 (stereo not drawn) [4-carboxy-alpha-(3-mercaptopropyl)-benzenepropanoic acid]
11,6.33 nM,O=C(O)c1ccc(F)c(CC(CCCS)C(=O)O)c1 (stereo not drawn) [5-carboxy-2-fluoro-alpha-(3-mercaptopropyl)-benzenepropanoic acid]
12,33.3 nM,"O=C(O)c1cccc(CC(CCCS)C(=O)O)c1 (single isomer, unassigned; (-)) [(−)-3-carboxy-alpha-(3-mercaptopropyl)-benzenepropanoic acid]"
13,308 nM,O=C(O)C(CCCS)Cc1cccc(Oc2ccccc2)c1 (stereo not drawn) [alpha-(3-mercaptopropyl)-3-phenoxy-benzenepropanoic acid]
14,1690 nM,O=C(CSCCCC(Cc1cc(C(=O)O)cc(-c2ccccc2)c1)C(=O)O)NO (centres unmarked) [5-(2-Carboxy-5-hydroxycarbamoylmethyl-sulfanylpentyl)-biphenyl-3-carboxylic acid]
15,1130 nM,O=C(NCc1ccccc1)c1cccc(CC(CCCS)C(=O)O)c1 (stereo not drawn) [alpha-(3-mercaptopropyl)-3-[[(phenylmethyl)amino]carbonyl]-benzenepropanoic acid]
